In the test the target is T1, ODR-10 (Caenorhabditis elegans, UniProt Q18807).
T1 construct: ODR-10 in pET-DEST42 (V5 and Ni-column purification tag), E. coli BL21(DE3), SDS-solubilized, reconstituted in DDM/Cymal 6 detergent micelles; also pcDNA3 ODR-10 in HEK-293 cells
T1 sequence (Q18807 1-339): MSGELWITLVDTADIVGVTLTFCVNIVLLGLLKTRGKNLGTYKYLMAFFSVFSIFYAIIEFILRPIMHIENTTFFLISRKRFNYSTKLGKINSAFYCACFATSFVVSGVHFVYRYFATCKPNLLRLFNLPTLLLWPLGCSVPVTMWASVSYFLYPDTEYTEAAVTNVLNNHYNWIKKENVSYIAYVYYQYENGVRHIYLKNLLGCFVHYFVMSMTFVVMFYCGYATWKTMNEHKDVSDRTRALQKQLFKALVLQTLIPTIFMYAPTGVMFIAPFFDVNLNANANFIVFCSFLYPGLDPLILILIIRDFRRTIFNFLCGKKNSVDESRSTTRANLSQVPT
Put plainly: carbon nanotube FET, Hill fit of conductance response. Type of test: binding. To be noted: read-out: K.

We go through one molecule from publication PMC7270175, “Micelle-stabilized Olfactory Receptors for a Bioelectronic Nose Detecting Butter Flavors in Real Fermented Alcoholic Beverages” (Scientific Reports, 2020).

As to `CC(=O)C(C)=O` [Diacetyl, 2,3-butanedione], the Kd was roughly 1.7 pM.
